Active and inactive are the calls of the source.
Tests used:
[1] = biological target: T1, Corticotropin-releasing factor receptor 2/Corticotropin-releasing factor-binding protein (Homo sapiens, UniProt P24387+Q13324); experiment: Dose Response confirmation of uHTS hits for small molecule antagonists of the CRF-binding protein and CRF-R2 receptor complex.; format: functional; conditions: read-out: IC50_Mean
T1 sequence (Q13324 whole entry): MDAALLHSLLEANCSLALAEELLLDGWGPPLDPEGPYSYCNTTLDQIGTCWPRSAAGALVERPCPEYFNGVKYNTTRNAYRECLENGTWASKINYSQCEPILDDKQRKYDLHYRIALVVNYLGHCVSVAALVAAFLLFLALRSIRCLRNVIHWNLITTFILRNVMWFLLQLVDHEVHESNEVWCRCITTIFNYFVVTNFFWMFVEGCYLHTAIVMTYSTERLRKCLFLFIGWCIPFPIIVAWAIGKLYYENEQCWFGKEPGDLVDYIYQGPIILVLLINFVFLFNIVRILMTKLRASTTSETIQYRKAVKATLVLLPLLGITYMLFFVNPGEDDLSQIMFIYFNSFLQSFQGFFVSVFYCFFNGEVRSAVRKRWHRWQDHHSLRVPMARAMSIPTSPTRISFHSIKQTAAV
T1 sequence (P24387 whole entry): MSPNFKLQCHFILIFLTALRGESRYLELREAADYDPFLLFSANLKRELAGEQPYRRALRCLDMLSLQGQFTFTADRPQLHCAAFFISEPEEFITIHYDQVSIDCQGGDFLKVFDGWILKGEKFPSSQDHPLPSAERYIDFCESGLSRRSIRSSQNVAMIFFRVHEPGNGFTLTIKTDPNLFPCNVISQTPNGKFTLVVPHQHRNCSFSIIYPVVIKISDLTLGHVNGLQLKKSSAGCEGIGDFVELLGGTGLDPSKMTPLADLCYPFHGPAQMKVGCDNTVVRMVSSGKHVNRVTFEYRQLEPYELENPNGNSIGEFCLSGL

[2] = CRF-BP/CRF-R2 complex antagonists, dose response, cell-based, uHTS hits, 384-well (AID 651639); format: functional, Homo sapiens; conditions: read-out: IC50_Mean
[3] = biological target: T1, Corticotropin-releasing factor receptor 2/Corticotropin-releasing factor-binding protein; experiment: activators of CRF receptor 2 with binding protein – uHTS hits, confirmation (AID 602473); format: functional; conditions: read-out: EC50_Mean
[4] = biological target: Photoreceptor-specific nuclear receptor (Homo sapiens, UniProt Q9Y5X4); format: functional, cell-based;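 further: CHO-S cells with Gal4-NCOR and VP16-NR2E3 two-hybrid luciferase reporter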
[5] = inhibitors of intracellular T. cruzi replication, confirmation, NIH3T3 host cells, beta-gal luminescence (AID 2044); format: functional, cell-based;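 further: intracellular parasites grown in NIH/3T3 mouse fibroblasts as host cells; luminescent beta-galactosidase reporter signal from transgenic T. cruzi replicating inside host cells; inhibitors lower the luminescence signal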
[6] = cytotoxicity toward NIH3T3 fibroblasts, dose response, counter-screen, cell-based, ATP luminescence, mouse fibroblasts (AID 2010); format: functional;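 further: cells exposed to compound for about 90 hours before reading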
[7] = Shn3 3'UTR reporter inhibitors, dose response, cell-based, Clone20 osteoblasts, firefly luciferase, cherry-picked (AID 624132); format: functional;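 further: firefly luciferase luminescence from reporter carrying the Shn3 3'UTR in osteoblasts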
[8] = biological target: T2, Galanin receptor type 3 (Homo sapiens, UniProt O60755); experiment: Fluorescence-based cell-based primary high throughput dose response assay to identify antagonists of the Galanin Receptor 3 (GalR3).; format: functional
T2 sequence (O60755 whole entry): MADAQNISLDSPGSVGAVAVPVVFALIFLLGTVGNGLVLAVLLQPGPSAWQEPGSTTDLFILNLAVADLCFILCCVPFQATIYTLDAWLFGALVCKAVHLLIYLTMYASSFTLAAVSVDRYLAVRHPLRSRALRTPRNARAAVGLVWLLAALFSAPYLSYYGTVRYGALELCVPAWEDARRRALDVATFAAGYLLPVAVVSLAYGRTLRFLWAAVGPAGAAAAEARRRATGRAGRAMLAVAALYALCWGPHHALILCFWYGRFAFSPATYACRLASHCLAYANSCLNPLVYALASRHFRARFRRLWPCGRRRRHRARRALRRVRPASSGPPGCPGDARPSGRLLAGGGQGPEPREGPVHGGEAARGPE

[9] = system: INS1; experiment: beta cell apoptosis inhibitors, cytokine rescue, dose response, luminescence, retest (AID 449756); format: functional, cell-based; conditions: Rattus norvegicus;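 further: cell death triggered by IL-1 beta plus TNF-alpha plus IFN-gamma mixture; protective hits raise ATP signal compared with cytokine alone wells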
[10] = cells; format: functional, cell-based; conditions: HEK-CNG
[11] = system: BJ; experiment: cells; format: functional, cell-based; conditions: Homo sapiens
[12] = cytotoxicity in HEK-293T cells, dose response, cytotoxicity control for TCR NF-kB inhibitor project, luminescence, T-cell screen hits (AID 489026); format: functional, cell-based;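 further: cells exposed to compound about 14 hours before the viability readout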
[13] = system: BJ; experiment: cytotoxicity toward BJ-TERT fibroblasts, dose response, cell-based, RAS-independent, luminescence (AID 1933); format: functional; conditions: Homo sapiens
[14] = system: BJ; experiment: cytotoxicity toward BJ-TERT-LT-ST fibroblasts, dose response, cell-based, RAS-independent, luminescence (AID 1935); format: functional; conditions: Homo sapiens;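 further: BJ fibroblasts immortalized with TERT plus LT and ST oncogenes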
[15] = control 3'UTR Renilla luciferase suppression, dose response, counter-screen for Shn3 inhibitor project, cell-based, Clone20-Shn3RL, cherry-picked (AID 624133); format: functional
[16] = cytotoxicity toward DRD oncogenic fibroblasts, dose response, cell-based, non-viral oncogenic, luminescence (AID 1934); format: functional; conditions: Homo sapiens
[17] = HepG2 cell cytotoxicity, dose response, cytotoxicity control for Shn3 inhibitor project, CellTiter-Glo, cherry-picked (AID 624134); format: functional, cell-based

Chain of Photoreceptor-specific nuclear receptor (Q9Y5X4 whole entry, the tested form may be a part): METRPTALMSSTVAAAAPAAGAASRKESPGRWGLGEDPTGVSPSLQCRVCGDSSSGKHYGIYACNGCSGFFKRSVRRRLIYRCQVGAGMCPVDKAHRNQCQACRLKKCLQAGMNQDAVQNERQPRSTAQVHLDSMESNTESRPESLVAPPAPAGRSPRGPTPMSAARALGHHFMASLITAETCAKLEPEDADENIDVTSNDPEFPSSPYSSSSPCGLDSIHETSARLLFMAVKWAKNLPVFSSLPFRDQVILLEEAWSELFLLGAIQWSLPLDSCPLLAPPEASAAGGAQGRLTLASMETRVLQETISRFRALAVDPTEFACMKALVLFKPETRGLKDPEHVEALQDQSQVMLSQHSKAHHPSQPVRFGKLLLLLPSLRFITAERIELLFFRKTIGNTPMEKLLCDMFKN

With `Cc1cc(C)cc(Nc2c(F)c(F)c(F)c(F)c2C(=O)O)c1` the IC50 [1] was 31.2 µM (active), the IC50 [2] was 3.74 µM (active) and the EC50 [3] was > 53 µM (inactive).

For `O=C(Nc1cccc(NC(=O)c2c(F)cccc2F)n1)c1c(F)cccc1F`, the IC50 [4] was 2.98 µM (active).

For `Cc1nn(Cc2cccc(F)c2)c(C)c1NC(=O)c1ccc(COc2ccccc2Cl)cc1`, the IC50 [4] was 2.85 µM (active), the EC50 [5] was 1.26 µM (active) and the EC50 [6] was 40.4 µM (active).

With `Cc1ccc(S(=O)(=O)N2c3ccccc3OCC2c2ccccc2)cc1` (stereo unspecified) the IC50 [1] was < 0.368 µM (active), the IC50 [2] was > 20 µM (inactive) and the EC50 [3] was > 53 µM (inactive).

With `O=S(=O)(c1ccc2c(c1)OCCO2)N1CCN(c2ncnc3sccc23)CC1` the AC50 [7] was 1.45 µM (active), the IC50 [8] was 2.06 µM (active) and the AC50 [9] was 3.37 µM (active). The EC50 [10] was > 29.9 µM (inactive), the EC50 [11] was > 150 µM (not active) and the IC50 [12] was > 80 µM (inactive). For the same molecule, the EC50 [13] was > 150 µM (not active), the EC50 [14] was > 150 µM (not active) and the AC50 [15] was 29.6 µM (active). The EC50 [16] was > 150 µM (not active) and the AC50 [17] was 3.21 µM (active).

Reference: ChEMBL document CHEMBL1201862, “PubChem BioAssay data set” (2004)
